Experimental data taken from patent publication US12584101B2, “Compositions and method of use for H5 competent Bifidobacterium longum subsp. Infantis” (INFINANT HEALTH, INC., priority 2018, dated 2026).

System: Blon_0881 and Blon_2343
Assay: qPCR gene expression of Blon_0881 and Blon_2343 relative to Blon_0393 (activation)
Format: cell-based, B. infantis
Settings: 5, 10, 15 and 20 g/L of NAG, rest glucose to 20 g/L; stationary phase
Description: In some embodiments, gene activation relates to Blon_0881 and Blon_2343 and their expression is greater than 1; that is, when the delta delta cycle threshold (2^ΔΔCt) is greater than 1, DDCT is calculated using Blon_0393, or another constitutively expressed gene as a reference. The result (activation) is the fold change (2^ΔΔCt>1) of gene expression. Determined based on the double delta CT (2^ΔΔCt) method (Livak K and Schmittgen T. (2001) Analysis of relative gene expression data using real-time quantitative PCR and the 2(−Delta Delta C(T)) Method. Methods: 25: 402-8). In other embodiments, other genes from Table 1 are used in addition to Blon_0881 and Blon_2343.
A series of fermentations were conducted where B. infantis was grown on various concentrations of NAG and glucose. MRS broth was prepared without a carbon source. The carbon source was added at 2% of the media or 20 g/L. The carbon source was varied according to Table 5. The cells were grown to the stationary phase and spun down. The supernatant was removed and the cells lysed. RNA was extracted. The cells were tested for increase in gene expression of Blon_0881 and Blon_2343 by qPCR relative to Blon_0393. The 2^ΔΔCt was greater than 1 confirming activation for 5, 10, 15 and 20 g/L of NAG. […]

“N-acetyl-glucosamine/galactosamine (NAG)” was tested, and the “2^ΔΔCt of Blon_0881 and Blon_2343 relative to Blon_0393” value was “greater than 1”.
